Results published in patent US20250186542A1, “COMPOSITION CONTAINING PEPTIDE COMPOUND FOR USE WITH SURFACTANT” (CHUGAI SEIYAKU KABUSHIKI KAISHA, priority 2022, published 2025).
In brackets after ≈: the same amount, converted by molar mass. Bridge positions count the residues as written; N and C are the ends. Square brackets hold non-standard residues; d marks the D form. Peptide text beside a SMILES is read from it. * marks the point of attachment. ξ: configuration not given here. hPhe(3-Cl-4-CF3) = N[C@@H](CCc1ccc(C(F)(F)F)c(Cl)c1)C(=O)O; Phe(3-Cl) = N[C@@H](Cc1cccc(Cl)c1)C(=O)O; NMeCha = CN[C@@H](CC1CCCCC1)C(=O)O; NMeChg = CN[C@H](C(=O)O)C1CCCCC1; NMeF = CN[C@@H](Cc1ccccc1)C(=O)O; NMeD = CN[C@@H](CC(=O)O)C(=O)O; dNMeD = CN[C@H](CC(=O)O)C(=O)O; dNMeL = CN[C@H](CC(C)C)C(=O)O; ξIle = CC[C@H](C)C(N)C(=O)O; NMeS = CN[C@@H](CO)C(=O)O; Pip = O=C(O)[C@@H]1CCCCN1; Nle = CCCC[C@H](N)C(=O)O; Piperidide = C1CCN(*)CC1; Pyrrolidide = C1CCN(*)C1; dNMeA = CN[C@H](C)C(=O)O; Ac5c = NC1(C(=O)O)CCCC1; Sar = CNCC(=O)O; Propyl = CCC*

Key:
[1] = tested on: Caco-2 cells; assay: Evaluation of Caco-2 membrane permeability; assay type: in vitro ADME; details: HBSS pH 7.4 4% BSA basal, 180 minutes; for Without 5 mM lauroyl-L-carnitine Permeability coefficient (Caco-2 Papp): 10 µM compound in FaSSIF/HBSS pH 6.5 apical, no lauroyl-L-carnitine; for With 5 mM lauroyl-L-carnitine Permeability coefficient (Caco-2 Papp): 10 µM compound, 5 mM lauroyl-L-carnitine in FaSSIF/HBSS pH 6.5 apical
Procedure: (§1) In the above measurements, a Pgp inhibitor, such as Zosquidar, can be added to the FaSSIF/HBSS buffer and the HBSS buffer, respectively.
(§2) After step (step 1) and before step (step 2) of the above, pre-incubation can be performed by allowing each well to stand at 5% CO2, 37° C., 80 rpm for 20 to 24 hours.
(§3) After pre-incubation, the solution at the Basal side can be removed and washed, and a new solution of the same composition can be added. A Pgp inhibitor can also be added to the new solution. When the pre-incubation is performed, it is preferable that a DMEM solution (pH 7.4) containing 4% BSA is used instead of the HBSS buffer (pH 7.4).
(§4) In addition, as the concentration of the substance to be evaluated on the donor side used in the calculation of the permeability coefficient in step (step 3) above, the concentration when initially added can be used, or the concentration measured by collecting the solution at the Apical side before the start of pre-incubation or the start of shaking in the above step (step 2) can be used. In particular, when the preincubation is performed, it is preferable to use the concentration of the solution at the Apical side collected before pre-incubation.

[2] = Evaluation of solubility in 50 mM phosphate buffer (PPB, pH 6.5); assay type: physicochemical
Procedure: To an excessive amount of a lyophilized powder of the compound, 50 mM phosphate buffer (PPB, pH 6.5) is added, and after shaking (37° C., 1 atm, 1800 rpm, for 22 to 24 hours), the mixture is filtered with a filter, and the compound concentration of the filtrate is measured by LC/MS/MS. Solubility (g/mL) is calculated from the measured compound concentration.
Solubility (μg/mL) was calculated from the measured compound concentration.

[3] = Evaluation of Caco-2 membrane permeability; assay type: in vitro ADME; details: human
Procedure: as §1, §2, §3, §4

[4] = 50 mM phosphate buffer pH 6.5, 37° C., 1 atm, 22 to 24 hours, read-out: PPB solubility
[5] = Caco-2, With 5 mM lauroyl-L-carnitine Permeability coefficient (Caco-2 Papp)
[6] = Caco-2, Without 5 mM lauroyl-L-carnitine Permeability coefficient (Caco-2 Papp)

Row | Without 5 mM lauroyl-L-carnitine Permeability coefficient (Caco-2 Papp) [1] | With 5 mM lauroyl-L-carnitine Permeability coefficient (Caco-2 Papp) [1] | solubility [2, 4] | Papp A→B at 180 min ([3]; Caco-2, 5 mM lauroyl-L-carnitine in FaSSIF/HBSS pH 6.5 apical, HBSS pH 7.4 4% BSA basal, 180 minutes) | SMILES | Papp A→B at 180 min [3, 5] | Papp A→B at 180 min [3, 6] | solubility ([2]; pH 6.5)
1 | 0.491 nm/s | 2.65 nm/s | 1.18 µg/mL (≈ 0.81 µM) | – | CC[C@H](C)[C@@H]1NC(=O)[C@H](CC(C)C)N(C)C(=O)CC(C(=O)N2CCOCC2)N(C)C(=O)[C@H](C2CCCC2)N(C)C(=O)C2(CCCC2)NC(=O)[C@@H]2CCCN2C(=O)[C@H](CCc2ccc(C(F)(F)F)c(Cl)c2)NC(=O)CN(C)C(=O)[C@H](CC2CCCCC2)N(C)C(=O)[C@@H]2CCN2C(=O)[C@H](C)N(C)C1=O (single isomer, unassigned) [Compound 2] | – | – | –
2 | – | – | – | – | CC[C@H](C)[C@@H]1NC(=O)[C@H](CC(C)C)N(C)C(=O)CC(C(=O)N2CCOCC2)N(C)C(=O)[C@H](C2CCCC2)N(C)C(=O)C2(CCCC2)NC(=O)[C@@H]2CCCN2C(=O)[C@H](CCc2ccc(C(F)(F)F)c(Cl)c2)NC(=O)CN(C)C(=O)[C@H](Cc2ccc(C)cc2)N(CC)C(=O)[C@@H]2CCN2C(=O)[C@H](C)N(C)C1=O (single isomer, unassigned) [Compound 3] | 3.66 nm/s | 2.15 nm/s | 1.81 µg/mL (≈ 1.22 µM)
3 | 0.0949 nm/s | 0.214 nm/s | 9.18 µg/mL (≈ 6.74 µM) | – | CC[C@H](C)[C@@H]1NC(=O)C(CC(C)C)N(C)C(=O)CC(C(=O)N(C)C)N(C)C(=O)[C@H](C2CCCC2)N(C)C(=O)C(C)NC(=O)C(C)N(C)C(=O)[C@H](CCc2ccc(C(F)(F)F)c(Cl)c2)NC(=O)CN(C)C(=O)[C@H](CC2CCCCC2)N(C)C(=O)[C@@H]2CCN2C(=O)[C@H](C)N(C)C1=O (single isomer, unassigned) [Compound 9] | – | – | –
4 | <0.0976 nm/s | – | 101 µg/mL (≈ 71.6 µM) | 0.14 nm/s | CC[C@H](C)[C@@H]1NC(=O)[C@H](CC(C)C)N(C)C(=O)CC(C(=O)N2CCOCC2)N(C)C(=O)[C@H](C2CCCC2)N(C)C(=O)C2(CCCC2)NC(=O)[C@@H]2CCCN2C(=O)[C@H](CCc2ccc(C(F)(F)F)c(Cl)c2)NC(=O)CN(C)C(=O)[C@H](C2CCCC2)N(C)C(=O)[C@@H]2CCN2C(=O)[C@H](C)NC1=O (single isomer, unassigned) [Compound 10] | – | – | –
5 | – | – | – | – | CCCCN1CC(=O)N(C)[C@@H](CC(C)C)C(=O)N[C@@H](Cc2ccc(C(=O)NS(C)(=O)=O)c(OC)c2)C(=O)N(C)[C@@H](CC(C)C)C(=O)N(C)[C@@H](CC(C)C)C(=O)NC(C(=O)N2CCCCC2)CC(=O)NC(CC(C)C)C(=O)N(C)[C@@H](Cc2ccccc2)C(=O)NC(C(C)C)C(=O)N(C)[C@@H](CC(C)C)C(=O)N[C@@H]([C@H](C)O)C1=O (single isomer, unassigned) [Compound 11] | 0.302 nm/s | 0.0921 nm/s | 16.2 µg/mL (≈ 10.3 µM)
6 | <0.944 nm/s | 5.26 nm/s | 5.76 µg/mL (≈ 4.11 µM) | – | CC[C@@H](C)[C@H]1NC(=O)[C@@H](Cc2ccccc2)N(C)C(=O)CN(C)C(=O)C[C@@H](C(=O)N2CCCCC2)NC(=O)[C@@H](CC(C)C)N(C)C(=O)[C@@H](COC(C)(C)C)NC(=O)[C@@H](CC(C)C)N(C)C(=O)[C@@H](CCc2ccccc2)N(C)C(=O)CN(C)C(=O)[C@@H]([C@H](C)O)NC(=O)[C@@H](CC(C)C)N(C)C1=O (stereo in doubt) [Compound 7] | – | – | –
7 | 0.142 nm/s | 2.53 nm/s | 1.12 µg/mL (≈ 0.777 µM) | – | CC[C@H](C)C1NC(=O)[C@@H](CC(C)C)N(C)C(=O)C[C@H](C(=O)N2CCCCC2)N(C)C(=O)[C@H](C2CCCCC2)N(C)C(=O)C2(CCCC2)NC(=O)[C@@H]2CCCN2C(=O)[C@H](CCc2ccc(C(F)(F)F)c(Cl)c2)NC(=O)CN(C)C(=O)[C@H](CC2CCCCC2)N(C)C(=O)CN(C)C(=O)CN(C)C1=O (some centres unmarked) [Compound 1] ([dNMeL][ξIle][Sar][Sar][NMeCha][Sar][hPhe(3-Cl-4-CF3)]P[Ac5c][NMeChg][dNMeD]-Piperidide; lactam N-11) | – | – | –
8 | 0.0372 nm/s | 0.264 nm/s | – | – | CCCC[C@@H]1NC(=O)[C@@H]2CCCN2C(=O)[C@H](CCCC)NC(=O)[C@@H](C)N(C)C(=O)C[C@@H](C(=O)N2CCCC2)N(C)C(=O)[C@@H]2CCCN2C(=O)[C@H]([C@@H](C)CC)NC(=O)[C@@H]2CCCCN2C(=O)[C@H](Cc2cccc(Cl)c2)NC(=O)[C@H](COCCC)N(C)C(=O)[C@H](Cc2ccccc2)N(C)C1=O [Compound 5] ([dNMeA][Nle]P[Nle][NMeF][NMeS](Propyl)[Phe(3-Cl)][Pip]IP[NMeD]-Pyrrolidide; lactam N-11) | – | – | –

Row | SMILES | Without 5 mM lauroyl-L-carnitine Permeability coefficient (Caco-2 Papp) [1] | With 5 mM lauroyl-L-carnitine Permeability coefficient (Caco-2 Papp) [1] | solubility [2, 4] | Papp A→B at 180 min ([3]; Caco-2, 5 mM lauroyl-L-carnitine in FaSSIF/HBSS pH 6.5 apical, HBSS pH 7.4 4% BSA basal, 180 minutes) | Papp A→B at 180 min [3, 5] | Papp A→B at 180 min [3, 6] | solubility ([2]; pH 6.5)
9 | CC[C@H](C)[C@@H]1NC(=O)[C@H](CC(C)C)N(C)C(=O)CC(C(=O)N2CCCCC2)N(C)C(=O)[C@H](C2CCCC2)N(C)C(=O)C2(CCCC2)NC(=O)[C@@H]2CCCN2C(=O)[C@H](CCc2ccc(C(F)(F)F)c(Cl)c2)NC(=O)CN(C)C(=O)[C@H](CC2CCCCC2)N(C)C(=O)[C@@H]2CCN2C(=O)[C@H](C)N(C)C1=O (single isomer, unassigned) [Compound 8] | 0.42 nm/s | 1.54 nm/s | 1.13 µg/mL (≈ 0.777 µM) | – | – | – | –
